Our source for the IC50 values is patent publication US20260042753A1 (Merck Patent GmbH, priority 2019, published 2026).

Each structure is given as a SMILES string.

Assay [1] has as its target mutant cKIT (560-576 and V654A) in GIST430/654 cell line (Homo sapiens (Human), UniProt P10721, DEL560-576/V654A). Briefly: Cellular testing of cKIT mutant inhibitors: phospho-Y307-cKIT Luminex assay in GIST430/654 cells. In kind it is cell-based. To be noted: Table 1; cKIT autophosphorylation, compounds 45 min; read-out: GIST 430/654 IC50. The method in brief: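 GIST430/654 cells carrying constitutively active cKIT (Δ560-576/V654A) were grown with 100 nM imatinib, then treated with serially diluted compound for 45 min. Lysates were captured on anti-total-cKIT Luminex beads overnight at 4 °C and probed for phospho-Y307-cKIT. IC50 was fitted from percent of 0.3% DMSO control.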

Another assay deals with c-Kit(V654A) (Homo sapiens, UniProt P10721, V654A). Briefly: c-Kit(V654A) assay. In kind it is biochemical. To be noted: Table 1; 200 μM ATP. The method in brief: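 Radiometric filter-binding read-out: after 3% phosphoric acid stop, peptide-incorporated 33P on filtermat scintillation-counted. Enzyme: human c-Kit V654A, residues 544–end, N-terminal GST fusion.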

Sequence of mutant cKIT (560-576 and V654A) in GIST430/654 cell line (P10721 other isoform, or with tags, fused parts or gaps V654A/del 1-25/del 560-576 limits assumed): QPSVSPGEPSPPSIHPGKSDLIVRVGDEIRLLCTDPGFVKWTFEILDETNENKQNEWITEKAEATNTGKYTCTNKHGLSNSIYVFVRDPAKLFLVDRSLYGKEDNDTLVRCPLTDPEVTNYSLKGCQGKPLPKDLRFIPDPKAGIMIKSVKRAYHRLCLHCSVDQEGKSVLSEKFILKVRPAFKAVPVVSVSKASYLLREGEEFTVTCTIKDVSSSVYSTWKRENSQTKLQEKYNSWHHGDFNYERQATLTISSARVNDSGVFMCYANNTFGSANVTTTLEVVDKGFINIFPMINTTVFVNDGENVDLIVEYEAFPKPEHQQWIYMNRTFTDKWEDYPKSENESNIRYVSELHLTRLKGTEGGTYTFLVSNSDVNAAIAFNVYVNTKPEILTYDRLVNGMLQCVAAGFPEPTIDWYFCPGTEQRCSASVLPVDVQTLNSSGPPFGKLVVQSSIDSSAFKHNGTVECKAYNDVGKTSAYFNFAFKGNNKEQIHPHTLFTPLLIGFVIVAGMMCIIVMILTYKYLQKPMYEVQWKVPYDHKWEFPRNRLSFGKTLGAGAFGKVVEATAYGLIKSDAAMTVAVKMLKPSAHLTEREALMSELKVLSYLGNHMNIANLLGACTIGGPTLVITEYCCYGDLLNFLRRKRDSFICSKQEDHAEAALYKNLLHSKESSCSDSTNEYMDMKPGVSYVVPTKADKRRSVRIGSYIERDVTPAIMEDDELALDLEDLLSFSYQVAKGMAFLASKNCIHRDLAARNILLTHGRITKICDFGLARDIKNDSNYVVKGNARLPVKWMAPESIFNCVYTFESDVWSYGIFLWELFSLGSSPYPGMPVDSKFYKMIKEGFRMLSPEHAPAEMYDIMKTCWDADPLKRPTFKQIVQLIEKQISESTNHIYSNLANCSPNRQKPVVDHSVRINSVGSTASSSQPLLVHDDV

Consider `COCCOc1cc2[nH]nc(-c3cc(-c4ccc(N5CCOCC5)nc4)no3)c2cc1F` [A141, 5-fluoro-6-(2-methoxyethoxy)-3-{3-[6-(morpholin-4-yl)pyridin-3-yl]-1,2-oxazol-5-yl}-1H-indazole], for which the IC50 is 220 nM in assay [1] and 7.7 nM against c-Kit(V654A).
Taken in the same sequence, the figures for `COCCOc1cc2[nH]nc(-c3cc(-c4ccc(-n5ncccc5=O)cc4)no3)c2cc1F` [A142, 2-(4-{5-[5-fluoro-6-(2-methoxyethoxy)-1H-indazol-3-yl]-1,2-oxazol-3-yl}phenyl)-2,3-dihydropyridazin-3-one] were 75 nM and 6 nM.
Turning to `COCCOc1cc2[nH]nc(-c3cc(-c4ccc(Oc5ccccn5)cc4)no3)c2cc1F` [A143, 5-fluoro-6-(2-methoxyethoxy)-3-{3-[4-(pyridin-2-yloxy)phenyl]-1,2-oxazol-5-yl}-1H-indazole], the IC50 in assay [1] is 860 nM; at c-Kit(V654A) it was 18 nM.
Taken in the same sequence, the figures for `COCCOc1cc2[nH]nc(-c3cc(-c4ccc(S(=O)(=O)N(C)C)cc4)no3)c2cc1F` [A144, 4-{5-[5-fluoro-6-(2-methoxyethoxy)-1H-indazol-3-yl]-1,2-oxazol-3-yl}-N,N-dimethylbenzene-1-sulfonamide] were 1900 nM and 3.2 nM.
Taken in the same sequence, the figures for `COCCOc1cc2[nH]nc(-c3cc(-c4ccc(N5CC(N6CCOCC6)C5)nc4)no3)c2cc1F` [A145, 5-fluoro-6-(2-methoxyethoxy)-3-(3-{6-[3-(morpholin-4-yl)azetidin-1-yl]pyridin-3-yl}-1,2-oxazol-5-yl)-1H-indazole] were 1100 nM and 4.8 nM.
Consider `COCCOc1cc2[nH]nc(-c3cc(-c4ccc(C(=O)N5CC(N6CCOCC6)C5)cc4)on3)c2cc1F` [A146, (4-{3-[5-fluoro-6-(2-methoxy-ethoxy)-1H-indazol-3-yl]-isoxazol-5-yl}-phenyl)-(3-morpholin-4-yl-azetidin-1-yl)-methanone], for which the IC50 amounted to 90 nM in assay [1] and 2.9 nM on c-Kit(V654A).
Taken in the same sequence, the figures for `COCCOc1cc2[nH]nc(-c3cc(-c4ccc(C(=O)N5CC[C@@H]5C(C)(C)O)cc4)on3)c2cc1F` [A147, (4-{3-[5-fluoro-6-(2-methoxy-ethoxy)-1H-indazol-3-yl]-isoxazol-5-yl}-phenyl)-[(R)-2-(1-hydroxy-1-methyl-ethyl)-azetidin-1-yl]-methanone] were 67 nM and 2.2 nM.
Taken in the same sequence, the figures for `COCCOc1cc2[nH]nc(-c3cc(-c4ccc(C(=O)N5CC[C@H]5C(C)(C)O)cc4)on3)c2cc1F` [A148, (4-{3-[5-fluoro-6-(2-methoxy-ethoxy)-1H-indazol-3-yl]-isoxazol-5-yl}-phenyl)-[(S)-2-(1-hydroxy-1-methyl-ethyl)-azetidin-1-yl]-methanone] were 70 nM and 1.8 nM.
Consider `COCCOc1cc2[nH]nc(-c3cc(-c4ccc(C(=O)N5CC(c6ccccn6)C5)cc4)no3)c2cc1F` [A149, 5-fluoro-6-(2-methoxyethoxy)-3-(3-{4-[3-(pyridin-2-yl)azetidine-1-carbonyl]phenyl}-1,2-oxazol-5-yl)-1H-indazole], for which the values for the IC50 (in assay [1]; against c-Kit(V654A)) were 46 nM and 0.69 nM, respectively.
For `COCCOc1cc2[nH]nc(-c3cc(-c4ccc(C(=O)N(C)CCS(C)(=O)=O)cc4)no3)c2cc1F` [A150, 4-{5-[5-fluoro-6-(2-methoxyethoxy)-1H-indazol-3-yl]-1,2-oxazol-3-yl}-N-(2-methanesulfonylethyl)-N-methylbenzamide], in that order: 110 nM and 1.7 nM.
In the case of `COCCOc1cc2[nH]nc(-c3cc(-c4ccc(C(=O)N5CC6(C5)CS(=O)(=O)C6)cc4)no3)c2cc1F` [A151, 6-(4-{5-[5-fluoro-6-(2-methoxyethoxy)-1H-indazol-3-yl]-1,2-oxazol-3-yl}benzoyl)-2lambda6-thia-6-azaspiro[3.3]heptane-2,2-dione], the IC50 in assay [1] was 240 nM; against c-Kit(V654A) it was 0.71 nM.
Regarding `COCCOc1cc2[nH]nc(-c3cc(-c4ccc(C(=O)N5CC[C@H]5CS(C)(=O)=O)cc4)no3)c2cc1F` [A152, 5-fluoro-3-(3-{4-[(2S)-2-(methanesulfonylmethyl)azetidine-1-carbonyl]phenyl}-1,2-oxazol-5-yl)-6-(2-methoxyethoxy)-1H-indazole], the IC50 in assay [1] is 64 nM; on c-Kit(V654A), 0.88 nM.
As to `COCCOc1cc2[nH]nc(-c3cc(-c4ccc(C(=O)N5CCC(N6CCOCC6)C5)cc4)no3)c2cc1F` (stereo not shown) [A153, 5-fluoro-6-(2-methoxyethoxy)-3-(3-{f4-[3-(morpholin-4-yl)pyrrolidine-1l-carbonyl]phenyl}-1,2-oxazol-5-yl)-1H-indazole], the IC50 was found to be 46 nM in assay [1] and 0.83 nM at c-Kit(V654A).
For `COCCOc1cc2[nH]nc(-c3cc(-c4ccc(C(=O)N5CC[C@@H]5CS(C)(=O)=O)cc4)no3)c2cc1F` [A154, 5-fluoro-3-(3-{4-[(2R)-2-(methanesulfonylmethyl)azetidine-1-carbonyl]phenyl}-1,2-oxazol-5-yl)-6-(2-methoxyethoxy)-1H-indazole], in that order: 110 nM and 0.89 nM.
Taken in the same sequence, the figures for `COCCOc1cc2[nH]nc(-c3cc(-c4ccc(C(=O)N5CCOCC56COC6)cc4)no3)c2cc1F` [A155, 5-(4-{5-[5-fluoro-6-(2-methoxyethoxy)-1H-indazol-3-yl]-1,2-oxazol-3-yl}benzoyl)-2,8-dioxa-5-azaspiro[3.5]nonane] were 60 nM and 1.6 nM.
On to `COCCOc1cc2[nH]nc(-c3cc(-c4ccc(C(=O)NCc5nc6ccccc6[nH]5)cc4)no3)c2cc1F` [A156, N-[(1H-1,3-benzodiazol-2-yl)methyl]-4-{5-[5-fluoro-6-(2-methoxyethoxy)-1H-indazol-3-yl]-1,2-oxazol-3-yl}benzamide], for which the IC50 in assay [1] is 350 nM; on c-Kit(V654A), 5.2 nM.
For `COCCOc1cc2[nH]nc(-c3cc(-c4ccc(C(=O)N5CCC6(CCOC6)C5)cc4)no3)c2cc1F` (stereo not shown) [A157, 7-(4-{5-[5-fluoro-6-(2-methoxyethoxy)-1H-indazol-3-yl]-1,2-oxazol-3-yl}benzoyl)-2-oxa-7-azaspiro[4.4]nonane], in that order: 23 nM and 0.44 nM.
Taken in the same sequence, the figures for `COCCOc1cc2[nH]nc(-c3cc(-c4ccc(C(=O)N5CCC6(COC6)C5)cc4)no3)c2cc1F` [A158, 5-fluoro-6-(2-methoxyethoxy)-3-[3-(4-{2-oxa-6-azaspiro[3.4]octane-6-carbonyl}phenyl)-1,2-oxazol-5-yl]-1H-indazole] were 32 nM and 0.46 nM.
For the compound `COCCOc1cc2[nH]nc(-c3cc(-c4ccc(C(=O)N5CCC6(CCOCC6)C5)cc4)no3)c2cc1F` [A159, 2-(4-{5-[5-fluoro-6-(2-methoxyethoxy)-1H-indazol-3-yl]-1,2-oxazol-3-yl}benzoyl)-8-oxa-2-azaspiro[4.5]decane], the IC50 in assay [1] came to 21 nM; against c-Kit(V654A) it was 0.29 nM.
On to `COCCOc1cc2[nH]nc(-c3cc(-c4ccc(C(=O)N5CCC6(CN(C)C6)C5)cc4)no3)c2cc1F` [A160, 5-fluoro-6-(2-methoxyethoxy)-3-[3-(4-{2-methyl-2,6-diazaspiro[3.4]octane-6-carbonyl}phenyl)-1,2-oxazol-5-yl]-1H-indazole], for which the IC50 in assay [1] amounted to 170 nM; at c-Kit(V654A) it was 2.5 nM.
Taken in the same sequence, the figures for `COCCOc1cc2[nH]nc(-c3cc(-c4ccc(C(=O)N5CC6CC(C5)O6)cc4)no3)c2cc1F` [A161, 5-fluoro-6-(2-methoxyethoxy)-3-[3-(4-{6-oxa-3-azabicyclo[3.1.1]heptane-3-carbonyl}phenyl)-1,2-oxazol-5-yl]-1H-indazole] were 40 nM and 0.45 nM.
Taken in the same sequence, the figures for `COCCOc1cc2[nH]nc(-c3cc(-c4ccc(C(=O)N5C[C@@H]6C[C@H]5CO6)cc4)no3)c2cc1F` [A162, 5-fluoro-6-(2-methoxyethoxy)-3-(3-{4-[(1S,4S)-2-oxa-5-azabicyclo[2.2.1]heptane-5-carbonyl]phenyl}-1,2-oxazol-5-yl)-1H-indazole] were 44 nM and 0.65 nM.
Taken in the same sequence, the figures for `COCCOc1cc2[nH]nc(-c3cc(-c4ccc(C(=O)N5C[C@H]6C[C@@H]5CO6)cc4)no3)c2cc1F` [A163, 5-fluoro-6-(2-methoxyethoxy)-3-(3-{4-[(1R,4R)-2-oxa-5-azabicyclo[2.2.1]heptane-5-carbonyl]phenyl}-1,2-oxazol-5-yl)-1H-indazole] were 38 nM and 0.54 nM.
Turning to `COCCOc1cc2[nH]nc(-c3cc(-c4ccc(C(=O)NCC(C)(C)N5CCOCC5)cc4)no3)c2cc1F` [A164, 4-{5-[5-fluoro-6-(2-methoxyethoxy)-1H-indazol-3-yl]-1,2-oxazol-3-yl}-N-[2-methyl-2-(morpholin-4-yl)propyl]benzamide], the values for the IC50 (in assay [1]; at c-Kit(V654A)) were 130 nM and 1.5 nM, respectively.
Taken in the same sequence, the figures for `COCCOc1cc2[nH]nc(-c3cc(-c4ccc(C(=O)N5CC6(CCOCC6)C5)cc4)no3)c2cc1F` [A165, 2-(4-{5-[5-fluoro-6-(2-methoxyethoxy)-1H-indazol-3-yl]-1,2-oxazol-3-yl}benzoyl)-7-oxa-2-azaspiro[3.5]nonane] were 27 nM and 0.53 nM.
Taken in the same sequence, the figures for `COCCOc1cc2[nH]nc(-c3cc(-c4ccc(C(=O)N5CC(c6nc(C)no6)C5)cc4)no3)c2cc1F` [A166, 5-fluoro-6-(2-methoxyethoxy)-3-(3-{4-[3-(3-methyl-1,2,4-oxadiazol-5-yl)azetidine-1-carbonyl]phenyl}-1,2-oxazol-5-yl)-1H-indazole] were 87 nM and 0.96 nM.
